Results on 11 molecules are retold here after ChEMBL document CHEMBL5465560, “Selectivity Literature for EUbOPEN Chemogenomic Library” (2024).

Assay [1] deals with Calcium/calmodulin-dependent protein kinase type II subunit beta (Homo sapiens) (UniProt Q13554). In words: Selectivity interaction (ProQinase) EUB0000171b CAMK2B.
For assay [2], the target named is T1, Interleukin-1 receptor-associated kinase 4 (Homo sapiens) (UniProt Q9NWZ3).
T1 sequence (whole entry): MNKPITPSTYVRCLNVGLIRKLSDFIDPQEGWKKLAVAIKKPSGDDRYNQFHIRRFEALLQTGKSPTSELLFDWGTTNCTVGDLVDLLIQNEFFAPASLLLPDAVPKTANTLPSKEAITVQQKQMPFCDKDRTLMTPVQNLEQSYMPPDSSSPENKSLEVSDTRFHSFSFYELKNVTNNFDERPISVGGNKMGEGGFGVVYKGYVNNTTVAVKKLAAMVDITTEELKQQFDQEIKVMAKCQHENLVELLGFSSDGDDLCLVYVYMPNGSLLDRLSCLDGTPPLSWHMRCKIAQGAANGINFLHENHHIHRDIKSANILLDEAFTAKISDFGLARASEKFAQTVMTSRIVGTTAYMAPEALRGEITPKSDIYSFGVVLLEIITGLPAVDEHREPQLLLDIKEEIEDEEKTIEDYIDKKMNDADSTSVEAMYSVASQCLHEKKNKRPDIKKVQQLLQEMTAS
The note with it: at 10 µM.

The target of assay [3] is G protein-coupled receptor kinase 4 (Homo sapiens) (UniProt P32298). Nature of the assay: Selectivity interaction (KinomeScan (DiscoverX)) EUB0000655a GRK4. To be noted: at 10 µM.
Chain of G protein-coupled receptor kinase 4 (Homo sapiens) (P32298 whole entry, looked up): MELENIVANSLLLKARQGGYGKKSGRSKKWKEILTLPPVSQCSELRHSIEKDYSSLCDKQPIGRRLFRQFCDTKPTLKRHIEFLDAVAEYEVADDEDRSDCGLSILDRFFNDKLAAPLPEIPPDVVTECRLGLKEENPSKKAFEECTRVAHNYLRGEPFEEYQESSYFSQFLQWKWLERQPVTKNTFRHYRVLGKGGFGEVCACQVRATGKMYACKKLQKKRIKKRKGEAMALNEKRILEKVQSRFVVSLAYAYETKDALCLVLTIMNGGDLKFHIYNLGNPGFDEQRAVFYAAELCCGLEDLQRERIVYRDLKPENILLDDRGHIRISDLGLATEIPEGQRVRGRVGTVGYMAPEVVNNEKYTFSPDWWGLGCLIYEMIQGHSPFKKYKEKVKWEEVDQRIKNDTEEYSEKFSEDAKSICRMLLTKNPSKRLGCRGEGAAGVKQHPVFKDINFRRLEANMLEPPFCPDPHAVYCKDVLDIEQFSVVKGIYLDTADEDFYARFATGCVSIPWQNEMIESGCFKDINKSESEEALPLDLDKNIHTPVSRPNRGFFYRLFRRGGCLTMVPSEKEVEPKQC
Assay [4] concerns the target Serine/threonine-protein kinase MARK2 (Homo sapiens) (UniProt Q7KZI7). Nature of the assay: Selectivity interaction (KinomeScan (DiscoverX)) EUB0000695a MARK2. To be noted: at 100 nM.
In assay [5] the target is T2, Serine/threonine-protein kinase D3 (Homo sapiens) (UniProt O94806).
T2 sequence (whole entry): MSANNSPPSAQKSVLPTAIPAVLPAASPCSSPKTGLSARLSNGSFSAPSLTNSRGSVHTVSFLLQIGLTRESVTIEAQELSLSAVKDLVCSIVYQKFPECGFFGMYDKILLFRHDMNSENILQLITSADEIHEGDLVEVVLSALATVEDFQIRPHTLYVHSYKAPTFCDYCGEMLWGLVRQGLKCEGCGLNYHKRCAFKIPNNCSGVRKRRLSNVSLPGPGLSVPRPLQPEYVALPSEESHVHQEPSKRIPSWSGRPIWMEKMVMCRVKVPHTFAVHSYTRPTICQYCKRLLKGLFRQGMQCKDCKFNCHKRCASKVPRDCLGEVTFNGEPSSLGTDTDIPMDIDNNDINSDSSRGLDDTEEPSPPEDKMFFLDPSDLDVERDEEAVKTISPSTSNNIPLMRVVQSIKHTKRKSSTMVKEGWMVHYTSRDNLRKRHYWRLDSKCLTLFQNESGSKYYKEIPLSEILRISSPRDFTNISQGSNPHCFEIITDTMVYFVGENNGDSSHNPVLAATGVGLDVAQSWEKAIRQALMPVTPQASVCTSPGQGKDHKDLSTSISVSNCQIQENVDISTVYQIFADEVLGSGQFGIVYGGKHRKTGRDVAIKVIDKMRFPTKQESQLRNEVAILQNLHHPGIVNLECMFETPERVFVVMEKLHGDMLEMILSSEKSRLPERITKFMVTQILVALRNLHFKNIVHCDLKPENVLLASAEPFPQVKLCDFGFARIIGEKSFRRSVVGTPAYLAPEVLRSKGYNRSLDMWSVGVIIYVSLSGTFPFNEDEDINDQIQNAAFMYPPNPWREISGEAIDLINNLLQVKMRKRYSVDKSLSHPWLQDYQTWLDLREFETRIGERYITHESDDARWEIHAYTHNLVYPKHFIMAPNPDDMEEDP
In words: Selectivity interaction (Kinase screening (Nanosyn)) EUB0000604a PRKD3.

Assay [6] deals with STE20/SPS1-related proline-alanine-rich protein kinase (Homo sapiens) (UniProt Q9UEW8). Nature of the assay: Selectivity interaction (KinomeScan (DiscoverX)) EUB0000045b STK39.
Assay [7] addresses Cyclin-dependent kinase 8 (Homo sapiens, UniProt P49336). In words: Selectivity interaction (KinomeScan (DiscoverX)) EUB0000666a CDK8. The note with it: at 10 µM.
In assay [8] the target is 5'-AMP-activated protein kinase catalytic subunit alpha-1 (Homo sapiens, UniProt Q13131). In words: Selectivity interaction (Kinase panel (Enzyme activity assay)) EUB0000612a PRKAA1.
Chain of 5'-AMP-activated protein kinase catalytic subunit alpha-1 (Q13131 whole entry): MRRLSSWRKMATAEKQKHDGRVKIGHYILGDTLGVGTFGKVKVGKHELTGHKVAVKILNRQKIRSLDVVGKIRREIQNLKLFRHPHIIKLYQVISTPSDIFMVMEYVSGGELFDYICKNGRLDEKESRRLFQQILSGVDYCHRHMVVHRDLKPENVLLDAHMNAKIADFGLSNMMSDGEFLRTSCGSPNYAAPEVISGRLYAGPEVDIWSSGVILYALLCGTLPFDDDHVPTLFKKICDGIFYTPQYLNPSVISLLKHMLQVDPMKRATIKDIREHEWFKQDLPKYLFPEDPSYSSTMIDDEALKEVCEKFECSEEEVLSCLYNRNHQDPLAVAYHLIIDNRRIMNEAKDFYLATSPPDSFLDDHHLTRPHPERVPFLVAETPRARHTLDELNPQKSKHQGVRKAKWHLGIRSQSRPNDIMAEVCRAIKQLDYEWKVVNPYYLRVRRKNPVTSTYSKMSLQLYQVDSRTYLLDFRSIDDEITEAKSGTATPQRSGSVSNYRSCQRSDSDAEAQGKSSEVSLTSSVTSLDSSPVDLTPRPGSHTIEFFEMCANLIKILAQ
The target of assay [9] is T3, NUAK family SNF1-like kinase 2 (Homo sapiens) (UniProt Q9H093).
T3 sequence (whole entry): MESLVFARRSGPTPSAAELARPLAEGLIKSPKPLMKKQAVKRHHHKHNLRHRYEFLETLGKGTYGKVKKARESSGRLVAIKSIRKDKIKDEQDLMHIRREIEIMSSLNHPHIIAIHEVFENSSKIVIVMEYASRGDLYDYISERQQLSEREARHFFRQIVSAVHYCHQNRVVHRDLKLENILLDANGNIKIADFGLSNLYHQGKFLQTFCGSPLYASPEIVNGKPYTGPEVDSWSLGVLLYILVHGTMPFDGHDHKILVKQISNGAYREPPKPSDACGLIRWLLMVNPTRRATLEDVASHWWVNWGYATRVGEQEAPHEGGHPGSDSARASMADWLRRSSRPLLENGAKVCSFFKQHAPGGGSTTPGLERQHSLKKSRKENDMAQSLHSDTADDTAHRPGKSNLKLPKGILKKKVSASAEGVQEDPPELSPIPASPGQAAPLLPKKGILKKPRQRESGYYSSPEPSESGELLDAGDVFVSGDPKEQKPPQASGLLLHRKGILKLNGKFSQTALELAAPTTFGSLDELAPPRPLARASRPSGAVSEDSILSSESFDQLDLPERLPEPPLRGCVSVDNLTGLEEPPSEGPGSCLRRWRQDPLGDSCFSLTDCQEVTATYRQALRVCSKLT
Nature of the assay: Selectivity interaction (KinomeScan (DiscoverX)) EUB0000595a NUAK2. The note with it: at 10 µM.

The target in assay [10] is Ribosomal protein S6 kinase alpha-3 (Homo sapiens, UniProt P51812). Nature of the assay: Selectivity interaction (ActivX KiNativ screen (ex vivo kinase selectivity in human PBMCs)) EUB0001619a RPS6KA3. The note with it: PBMC, at 1 µM. It is filed as cell-based.
Chain of Ribosomal protein S6 kinase alpha-3 (P51812 whole entry): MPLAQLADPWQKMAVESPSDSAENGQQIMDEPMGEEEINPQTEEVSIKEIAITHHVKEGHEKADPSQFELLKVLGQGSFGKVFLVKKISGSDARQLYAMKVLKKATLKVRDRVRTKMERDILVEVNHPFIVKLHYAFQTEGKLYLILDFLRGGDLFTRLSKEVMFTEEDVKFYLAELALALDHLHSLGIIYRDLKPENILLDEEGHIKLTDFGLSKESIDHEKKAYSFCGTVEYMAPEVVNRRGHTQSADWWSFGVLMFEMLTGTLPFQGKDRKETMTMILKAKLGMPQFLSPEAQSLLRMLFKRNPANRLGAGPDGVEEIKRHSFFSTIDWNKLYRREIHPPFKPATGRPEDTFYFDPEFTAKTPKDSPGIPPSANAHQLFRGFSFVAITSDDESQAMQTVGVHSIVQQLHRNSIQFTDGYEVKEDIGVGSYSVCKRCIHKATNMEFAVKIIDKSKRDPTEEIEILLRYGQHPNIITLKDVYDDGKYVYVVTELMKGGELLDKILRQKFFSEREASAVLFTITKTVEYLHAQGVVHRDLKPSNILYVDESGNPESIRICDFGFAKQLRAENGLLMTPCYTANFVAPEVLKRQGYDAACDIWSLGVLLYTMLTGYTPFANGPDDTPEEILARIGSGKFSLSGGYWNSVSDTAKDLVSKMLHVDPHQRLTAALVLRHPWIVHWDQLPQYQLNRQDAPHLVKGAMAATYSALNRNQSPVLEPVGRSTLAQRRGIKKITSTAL
Assay [11] addresses Serine/threonine-protein kinase PAK 1 (Homo sapiens) (UniProt Q13153). Nature of the assay: Selectivity interaction (KinomeScan (DiscoverX)) EUB0001619a PAK1. To be noted: at 1 µM.
Assay [12] has as its target Protein-tyrosine kinase 6 (Homo sapiens, UniProt Q13882). Nature of the assay: Selectivity interaction (KinomeScan (DiscoverX)) EUB0000618a PTK6. To be noted: at 10 µM.

Chain of Calcium/calmodulin-dependent protein kinase type II subunit beta (Homo sapiens) (Q13554 whole entry): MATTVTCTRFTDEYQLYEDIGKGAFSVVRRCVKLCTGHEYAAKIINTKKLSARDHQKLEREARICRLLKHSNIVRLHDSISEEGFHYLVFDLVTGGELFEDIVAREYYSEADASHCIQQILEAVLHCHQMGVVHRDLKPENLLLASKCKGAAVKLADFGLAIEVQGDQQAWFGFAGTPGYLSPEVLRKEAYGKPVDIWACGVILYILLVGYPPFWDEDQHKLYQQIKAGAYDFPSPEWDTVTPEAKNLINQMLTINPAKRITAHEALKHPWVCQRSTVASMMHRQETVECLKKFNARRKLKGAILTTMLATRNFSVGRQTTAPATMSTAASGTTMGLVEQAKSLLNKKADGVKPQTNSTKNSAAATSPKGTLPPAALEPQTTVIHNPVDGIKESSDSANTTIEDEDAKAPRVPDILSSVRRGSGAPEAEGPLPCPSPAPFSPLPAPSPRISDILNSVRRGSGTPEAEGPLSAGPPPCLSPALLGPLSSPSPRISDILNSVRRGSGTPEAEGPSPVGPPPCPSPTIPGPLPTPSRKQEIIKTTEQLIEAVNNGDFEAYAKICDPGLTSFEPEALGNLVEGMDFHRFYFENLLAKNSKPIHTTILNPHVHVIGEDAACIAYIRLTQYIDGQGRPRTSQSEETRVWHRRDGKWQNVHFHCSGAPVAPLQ
Chain of Protein-tyrosine kinase 6 (Q13882 whole entry, looked up): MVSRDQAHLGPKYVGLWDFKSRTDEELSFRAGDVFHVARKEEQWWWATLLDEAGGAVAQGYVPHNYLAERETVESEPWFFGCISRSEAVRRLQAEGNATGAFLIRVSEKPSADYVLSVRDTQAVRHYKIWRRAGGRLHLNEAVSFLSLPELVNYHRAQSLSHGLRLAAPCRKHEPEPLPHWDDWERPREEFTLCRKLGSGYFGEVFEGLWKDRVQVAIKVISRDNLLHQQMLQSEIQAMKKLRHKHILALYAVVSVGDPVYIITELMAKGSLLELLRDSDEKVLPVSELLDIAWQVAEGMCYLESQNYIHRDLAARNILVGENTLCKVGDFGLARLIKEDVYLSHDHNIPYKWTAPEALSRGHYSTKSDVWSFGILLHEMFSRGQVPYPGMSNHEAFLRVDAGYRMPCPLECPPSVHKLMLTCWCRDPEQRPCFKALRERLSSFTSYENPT
Chain of Cyclin-dependent kinase 8 (P49336 whole entry): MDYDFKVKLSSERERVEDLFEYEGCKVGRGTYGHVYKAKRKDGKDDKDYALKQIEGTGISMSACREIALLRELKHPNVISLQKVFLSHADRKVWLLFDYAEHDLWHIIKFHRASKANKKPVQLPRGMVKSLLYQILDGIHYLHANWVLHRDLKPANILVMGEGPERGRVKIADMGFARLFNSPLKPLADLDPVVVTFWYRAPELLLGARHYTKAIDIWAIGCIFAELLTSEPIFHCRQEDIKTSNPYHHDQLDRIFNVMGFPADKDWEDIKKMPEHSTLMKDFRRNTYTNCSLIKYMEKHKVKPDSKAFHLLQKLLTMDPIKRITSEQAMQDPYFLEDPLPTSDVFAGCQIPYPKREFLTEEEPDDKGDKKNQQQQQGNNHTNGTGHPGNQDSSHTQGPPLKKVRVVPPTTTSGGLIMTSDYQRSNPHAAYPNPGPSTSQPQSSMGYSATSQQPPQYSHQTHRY
Chain of Serine/threonine-protein kinase MARK2 (Homo sapiens) (Q7KZI7 whole entry): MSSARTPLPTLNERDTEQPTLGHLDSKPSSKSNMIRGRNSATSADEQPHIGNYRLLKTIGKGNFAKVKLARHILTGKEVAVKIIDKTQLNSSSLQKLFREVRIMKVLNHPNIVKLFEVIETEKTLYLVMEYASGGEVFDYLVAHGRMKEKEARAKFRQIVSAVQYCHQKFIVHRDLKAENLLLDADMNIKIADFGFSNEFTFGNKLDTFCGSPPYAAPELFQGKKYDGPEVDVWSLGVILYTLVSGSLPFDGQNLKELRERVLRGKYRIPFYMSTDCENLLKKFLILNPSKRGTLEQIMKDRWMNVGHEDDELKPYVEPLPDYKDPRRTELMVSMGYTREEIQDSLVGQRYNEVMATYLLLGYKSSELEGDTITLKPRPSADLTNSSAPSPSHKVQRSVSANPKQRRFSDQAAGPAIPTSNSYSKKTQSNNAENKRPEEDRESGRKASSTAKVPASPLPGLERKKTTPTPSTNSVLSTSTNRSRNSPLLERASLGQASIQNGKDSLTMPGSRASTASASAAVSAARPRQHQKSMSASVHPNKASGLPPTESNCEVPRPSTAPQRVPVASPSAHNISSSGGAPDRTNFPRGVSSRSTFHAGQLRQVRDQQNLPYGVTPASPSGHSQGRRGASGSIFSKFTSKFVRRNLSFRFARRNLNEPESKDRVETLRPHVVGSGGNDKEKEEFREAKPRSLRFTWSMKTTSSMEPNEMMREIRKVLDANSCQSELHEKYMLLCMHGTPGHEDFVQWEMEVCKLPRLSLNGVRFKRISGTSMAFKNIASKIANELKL
Chain of Serine/threonine-protein kinase PAK 1 (Homo sapiens) (Q13153 whole entry): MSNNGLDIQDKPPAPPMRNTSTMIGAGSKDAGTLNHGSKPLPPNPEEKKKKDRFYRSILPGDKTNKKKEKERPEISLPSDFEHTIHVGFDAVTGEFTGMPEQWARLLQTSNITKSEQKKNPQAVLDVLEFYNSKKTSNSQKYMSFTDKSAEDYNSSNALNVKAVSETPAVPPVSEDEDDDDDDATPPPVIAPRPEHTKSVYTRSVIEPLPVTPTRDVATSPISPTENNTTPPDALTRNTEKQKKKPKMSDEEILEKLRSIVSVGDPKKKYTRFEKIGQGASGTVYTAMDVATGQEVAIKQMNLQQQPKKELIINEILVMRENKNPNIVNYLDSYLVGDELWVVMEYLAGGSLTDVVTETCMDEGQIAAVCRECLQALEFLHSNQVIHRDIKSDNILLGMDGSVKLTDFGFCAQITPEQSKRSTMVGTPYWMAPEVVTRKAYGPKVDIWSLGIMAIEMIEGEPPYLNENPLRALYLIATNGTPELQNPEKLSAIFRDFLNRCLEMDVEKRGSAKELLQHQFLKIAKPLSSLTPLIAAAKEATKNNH

For `C=CC(=O)Nc1cccc(C(=O)Nc2ccc(Nc3cc(-c4[nH]c(SC)nc4C)ccn3)cc2)c1`, the % of control in assay [1] (at 1 µM) turned out to be 97%; in assay [1] (at 5 µM), 79%. Turning to `Cc1cc([C@@H](C)Nc2ccccc2C(=O)O)c2nc(N3CCOCC3)cc(=O)n2c1` [AZD-6482], in [2], the % of control turned out to be 100%. Regarding `CN(C)CCOc1ccc(-c2nc(-c3ccncc3)c(-c3ccc4c(c3)CC/C4=N\O)[nH]2)cc1`, the % of control in assay [3] amounted to 100%. As to `Cc1cc(F)c(C(=O)Nc2cccc(-c3nncn3C(C)C)n2)cc1-n1cnc(C2CC2)c1`, in assay [4], the % of control came to 100%. As for `Cc1cnc(Nc2ccc(F)cc2Cl)nc1-c1c[nH]c(C(=O)N[C@H](CO)c2cccc(Cl)c2)c1`, in assay [5], the % of inhibition amounted to 21%.

In the case of `C=CC(=O)Nc1cc(-n2c(=O)ccc3cnc4ccc(-c5ccc(NS(C)(=O)=O)cc5)cc4c32)ccc1C`, the % of control came to 68% in assay [6] (at 1 µM) and 100% in [6] (at 10 µM).

Consider `O=C(NOC[C@H](O)CO)c1ccc(F)c(F)c1Nc1ccc(I)cc1F`, for which the % of control in [7] is 100%.

Turning to `CCc1cccc(CC)c1NC(=O)c1nn(C)c2c1CCc1cnc(Nc3ccc(C(=O)NC4CCN(C)CC4)cc3OC(F)(F)F)nc1-2`, in assay [8], the IC50 (commonly the concentration that inhibits the measured activity by half) is > 10 µM. Turning to `COCC(=O)NC/C=C/c1ccc2ncnc(Nc3ccc(Oc4ccc(C)nc4)c(C)c3)c2c1` [CP-724714], in assay [9], the % of control stood at 100%.

The molecule `N#Cc1cccc(-c2c[nH]c3ncnc(N4CCOCC4)c23)c1` showed a % of inhibition in assay [10] of 13%. In [11], this molecule had a % of control of 100%. In the case of `O[C@H]1CC[C@H](Nc2ncc3nc(Nc4c(F)cc(F)cc4F)n([C@H]4CCOC4)c3n2)CC1`, the % of control in assay [12] was determined as 100%.
